This note sets out measurements from DBAASP.

Some test systems named below: Fusarium oxysporum; Micrococcus luteus; Escherichia coli SBS 363; Escherichia coli K99; Escherichia coli K88; Acinetobacter baumannii; Escherichia coli 078; Escherichia coli UB1005; Staphylococcus aureus; Streptococcus mutans.
What all share (experiment): ≥ marks a high value that may be exact or a test limit, other limits are often not marked, values filed in µg/mL are converted to µM
Test [1] concerns Mannheimia haemolytica 82-25.
Test [2] concerns Bordetella bronchiseptica CUN 11844-99.
Test [3] has as its system Staphylococcus aureus ATCC 25923.
Test [4] has as its system Escherichia coli ATCC 25922.
Test [5] relates to Pseudomonas aeruginosa CUN 4158-02.
Test [6] relates to Bacillus cereus CGMCC 1.932.
The subject of test [7] is Staphylococcus aureus ATCC 43300.
In test [8] the test system is Enterococcus faecalis ATCC 29212.
Test [9] deals with Staphylococcus epidermidis ATCC 12228.
The test system of test [10] is Bacillus subtilis CMCC 63501.
The test system of test [11] is Pseudomonas aeruginosa PAO1.
The test system of test [12] is Salmonella enterica subsp. enterica serovar Typhimurium ATCC 14028.
The subject of test [13] is Salmonella enterica subsp. enterica serovar Pullorum ATCC 7913.
In test [14] the test system is Salmonella typhimurium ATCC 7731.
For test [15], the system named is Listeria monocytogenes CGMCC 1.1075.
Test [16] deals with Pseudomonas aeruginosa ATCC 27853.
Test [17] has as its system Streptococcus sanguinis NY101.
The test system of test [18] is Streptococcus mitis ATCC 903.
The subject of test [19] is Pseudomonas aeruginosa PAK.
Test [20] has as its system Streptococcus gordonii Challis DL1.
Test [21] relates to Veillonella atypica PK1910.
For test [22], the system named is Lacticaseibacillus casei ATCC 4646.

Molecules are shown by their SMILES. Converted amounts (≈) assume the structure as drawn. A value given as a limit tells only on which side of the number the result lay.

In general, MIC refers to the lowest concentration that inhibits growth of the organism. Read a high MIC as a less susceptible organism. In test [1], `C[C@H](N)C(=O)N[C@@H](CC(=O)O)C(=O)N[C@@H](CC(=O)O)C(=O)N[C@@H](CC(=O)O)C(=O)N[C@@H](CC(=O)O)C(=O)N[C@@H](CC(=O)O)C(=O)N[C@@H](CC(=O)O)C(=O)O` [ADDDDDD] displayed an MIC not below 50 µM.

In the case of `NCC(=O)N[C@@H](CC(=O)O)C(=O)N[C@@H](CC(=O)O)C(=O)N[C@@H](CC(=O)O)C(=O)N[C@@H](CC(=O)O)C(=O)N[C@@H](CC(=O)O)C(=O)N[C@@H](CC(=O)O)C(=O)O` [GDDDDDD], the MIC in test [1] is not below 60 µM.

On to `CC[C@H](C)[C@H](NC(=O)[C@@H]1CCCN1C(=O)[C@H](CC(C)C)NC(=O)[C@H](Cc1ccc(O)cc1)NC(=O)[C@H](CCCCN)NC(=O)[C@H](CCCCN)NC(=O)[C@H](CC(C)C)NC(=O)[C@H](C)NC(=O)[C@H](CO)NC(=O)[C@H](CC(C)C)NC(=O)[C@H](Cc1ccccc1)NC(=O)CN)C(=O)N[C@H](C(=O)N[C@@H](CC(C)C)C(=O)N[C@@H](CCCCN)C(=O)N[C@@H](Cc1cnc[nH]1)C(=O)N[C@H](C(=O)O)C(C)C)C(C)C` [GFLSALKKYLPIVLKHV], for which the MIC turned out to be 0.78 µM (≈ 1.5 µg/mL) in the test on Fusarium oxysporum, 1.56 µM (≈ 3.01 µg/mL) in the test on Micrococcus luteus and 3.12 µM (≈ 6.02 µg/mL) against Escherichia coli SBS 363.

Consider `CC(C)C[C@H](NC(=O)CNC(=O)[C@H](CCCCN)NC(=O)[C@H](Cc1ccccc1)NC(=O)[C@H](CCCCN)NC(=O)[C@H](Cc1c[nH]c2ccccc12)NC(=O)[C@H](CCCN=C(N)N)NC(=O)[C@H](Cc1ccccc1)NC(=O)[C@H](CCCN=C(N)N)NC(=O)[C@H](CCCN=C(N)N)NC(=O)[C@H](Cc1ccc(O)cc1)NC(=O)[C@H](CCCCN)NC(=O)[C@H](CCCCN)NC(=O)CN)C(=O)N[C@@H](Cc1ccccc1)C(=O)N[C@@H](CC(C)C)C(=O)N[C@@H](Cc1ccccc1)C(=O)N[C@@H](CC(C)C)C(=O)NCC(N)=O` [GKKYRRFRWKFKGLFLFLG], for which the MIC in [2] came to 6.54 µM (≈ 16 µg/mL); in test [3], 26.1 µM (≈ 64 µg/mL); in test [4], 26.1 µM (≈ 64 µg/mL); in test [5], 26.1 µM (≈ 64 µg/mL).

Consider `CC[C@H](C)[C@H](NC(=O)[C@H](CCCN=C(N)N)NC(=O)[C@H](Cc1c[nH]c2ccccc12)NC(=O)[C@H](CCCN=C(N)N)NC(=O)[C@H](Cc1c[nH]c2ccccc12)NC(=O)[C@H](Cc1c[nH]c2ccccc12)NC(=O)[C@H](Cc1c[nH]c2ccccc12)NC(=O)[C@H](CCCN=C(N)N)NC(=O)[C@H](Cc1c[nH]c2ccccc12)NC(=O)[C@H](CCCN=C(N)N)NC(=O)CN)C(N)=O` [GRWRWWWRWRI], for which the MIC was 8 µM (≈ 13.9 µg/mL) in test [6]; 4 µM (≈ 6.97 µg/mL) in test [7]; 2 µM (≈ 3.49 µg/mL) in test [8]; 2 µM (≈ 3.49 µg/mL) in test [3]; 8 µM (≈ 13.9 µg/mL) in the test with Escherichia coli K99; 4 µM (≈ 6.97 µg/mL) against Escherichia coli K88. The MIC in test [9] was determined as 4 µM (≈ 6.97 µg/mL); in the test with Acinetobacter baumannii, 2 µM (≈ 3.49 µg/mL); in test [10], 4 µM (≈ 6.97 µg/mL); in [11], 8 µM (≈ 13.9 µg/mL); in test [12], 4 µM (≈ 6.97 µg/mL); in test [13] it was 2 µM (≈ 3.49 µg/mL). Moreover, the MIC with Escherichia coli 078 was 4 µM (≈ 6.97 µg/mL); in test [14], 16 µM (≈ 27.9 µg/mL); in the test on Escherichia coli UB1005, 8 µM (≈ 13.9 µg/mL); in [15] it was 1 µM (≈ 1.74 µg/mL); in test [16], 8 µM (≈ 13.9 µg/mL).

Turning to `CC[C@H](C)[C@H](N)C(=O)N[C@@H](CCCCN)C(=O)N[C@@H](CCC(N)=O)C(=O)N[C@@H](CC(C)C)C(=O)N[C@@H](CC(C)C)C(=O)N[C@@H](Cc1cnc[nH]1)C(=O)N[C@@H](Cc1ccccc1)C(=O)N[C@@H](Cc1ccccc1)C(=O)N[C@@H](CCC(N)=O)C(=O)N[C@@H](CCCN=C(N)N)C(=O)N[C@@H](Cc1ccccc1)C(N)=O` [IKQLLHFFQRF], the MIC in the test on Staphylococcus aureus was 42.3 µM (≈ 62.5 µg/mL); in test [17], not below 42.8 µM; against Streptococcus mutans, 16.3 µM (≈ 24 µg/mL); in test [18] it was not below 42.8 µM; in test [19] it was not below 42.3 µM; in test [20], 21.7 µM (≈ 32 µg/mL). Besides, the MIC is not below 43.3 µM in [21] and 21.7 µM (≈ 32 µg/mL) in test [22].

In the case of `NC(=O)[C@H](Cc1ccccc1)NC(=O)[C@H](Cc1c[nH]c2ccccc12)NC(=O)[C@H](Cc1c[nH]c2ccccc12)NC(=O)[C@H](Cc1c[nH]c2ccccc12)NC(=O)[C@H](CCCN=C(N)N)NC(=O)[C@H](CCCN=C(N)N)NC(=O)[C@@H](N)CCCN=C(N)N` [RRRWWWF], the MIC is 13.4 µM (≈ 16 µg/mL) in [17]; 4.74 µM (≈ 5.65 µg/mL) against Streptococcus mutans; 26.8 µM (≈ 32 µg/mL) in [18]; 26.8 µM (≈ 32 µg/mL) in test [20]; not below 53.7 µM in test [21]; 13.4 µM (≈ 16 µg/mL) in test [22].

Take `CC(C)[C@H](NC(=O)[C@H](CCCN=C(N)N)NC(=O)[C@H](Cc1c[nH]c2ccccc12)NC(=O)[C@H](CCCN=C(N)N)NC(=O)[C@H](Cc1c[nH]c2ccccc12)NC(=O)[C@H](Cc1c[nH]c2ccccc12)NC(=O)[C@H](Cc1c[nH]c2ccccc12)NC(=O)[C@H](CCCN=C(N)N)NC(=O)[C@H](Cc1c[nH]c2ccccc12)NC(=O)[C@@H](N)CCCN=C(N)N)C(N)=O` [RWRWWWRWRV]: the MIC in [6] is 16 µM (≈ 26.8 µg/mL); in test [7], 4 µM (≈ 6.69 µg/mL); in [8] it was 4 µM (≈ 6.69 µg/mL); in test [3] it was 4 µM (≈ 6.69 µg/mL); against Escherichia coli K99, 8 µM (≈ 13.4 µg/mL); in the test with Escherichia coli K88, 4 µM (≈ 6.69 µg/mL). Further, the MIC is 4 µM (≈ 6.69 µg/mL) in [9]; 2 µM (≈ 3.34 µg/mL) in the test on Acinetobacter baumannii; 4 µM (≈ 6.69 µg/mL) in [10]; 16 µM (≈ 26.8 µg/mL) in test [11]; 8 µM (≈ 13.4 µg/mL) in test [12]; 4 µM (≈ 6.69 µg/mL) in test [13]. The MIC in the test on Escherichia coli 078 was 4 µM (≈ 6.69 µg/mL); in test [14] it was 8 µM (≈ 13.4 µg/mL); in the test on Escherichia coli UB1005, 8 µM (≈ 13.4 µg/mL); in test [15], 1 µM (≈ 1.67 µg/mL); in test [16], 16 µM (≈ 26.8 µg/mL).

Turning to `NC(=O)[C@H](Cc1c[nH]c2ccccc12)NC(=O)[C@H](CCCN=C(N)N)NC(=O)[C@H](Cc1c[nH]c2ccccc12)NC(=O)[C@H](CCCN=C(N)N)NC(=O)[C@H](Cc1c[nH]c2ccccc12)NC(=O)[C@H](Cc1c[nH]c2ccccc12)NC(=O)[C@H](Cc1c[nH]c2ccccc12)NC(=O)[C@H](CCCN=C(N)N)NC(=O)[C@H](Cc1c[nH]c2ccccc12)NC(=O)[C@@H](N)CCCN=C(N)N` [RWRWWWRWRW], the MIC in [6] was 4 µM (≈ 7.04 µg/mL); in test [7] it was 2 µM (≈ 3.52 µg/mL); in test [8], 4 µM (≈ 7.04 µg/mL); in [3], 2 µM (≈ 3.52 µg/mL); in the test on Escherichia coli K99, 8 µM (≈ 14.1 µg/mL); with Escherichia coli K88 it was 2 µM (≈ 3.52 µg/mL). Also, the MIC in test [9] was 2 µM (≈ 3.52 µg/mL); in the test with Acinetobacter baumannii, 2 µM (≈ 3.52 µg/mL); in [10] it was 8 µM (≈ 14.1 µg/mL); in test [11], 4 µM (≈ 7.04 µg/mL); in test [12], 8 µM (≈ 14.1 µg/mL); in test [13] it was 4 µM (≈ 7.04 µg/mL). The MIC against Escherichia coli 078 was found to be 2 µM (≈ 3.52 µg/mL); in test [14], 8 µM (≈ 14.1 µg/mL); against Escherichia coli UB1005 it was 4 µM (≈ 7.04 µg/mL); in test [15], 1 µM (≈ 1.76 µg/mL); in test [16], 32 µM (≈ 56.3 µg/mL).
